For assay [1], the target named is T1, Xanthine oxidase (XO; from bovine milk) (Bos taurus, UniProt P80457).
T1 construct: Xanthine oxidase (XO; from bovine milk); purchased Sigma-Aldrich; host or cells: bovine milk
The assay is described as follows: XO-catalyzed xanthine oxidation (uric acid formation), HPLC. Format: biochemical. The settings on record: for IC50 (xanthine)/IC50 (6MP): ratio of IC50 values of xanthine and 6MP assays; for IC50: substrate xanthine 5 μM, inhibitor 0–20 μM. On the procedure:
(§1) Chrysin-7-glucuronide (C7G) and 6-thiouric acid were purchased from Carbosynth (Berkshire, UK). Chrysin-7-sulfate (C7S) was synthetized as described. Stock solutions of flavonoids (each 2 mM) were prepared in dimethyl sulfoxide (DMSO) and stored at −20 °C.
(§2) To test the inhibitory effects of flavonoids and their metabolites on the XO-catalyzed oxidation of xanthine and 6MP, the previously reported methods were applied without modifications. […] In each experiment, solvent controls (DMSO) were used. Metabolite formation (% of control) was plotted vs. the inhibitor concentrations in decimal logarithmic scale. IC50 values were evaluated by sigmoidal fitting, employing GraphPad Prism 8 software (San Diego, CA, USA).
(§3) After the in vitro XO assays, xanthine and uric acid as well as 6MP and 6-thiouric acid were quantified by the HPLC-UV methods described in our previous report, without any modifications.

Assay [2] has as its target T1, Xanthine oxidase (XO; from bovine milk). Briefly: XO-catalyzed 6-mercaptopurine oxidation (6-thiouric acid formation), HPLC. Format: biochemical. As for the experimental part: as §1, §2, §3
A further assay concerns hyperuricaemic mice. Conditions: cited from earlier work; for serum uric acid levels: orally administered; for serum uric acid concentrations: hyperuricemic mice, per os, API 50 and 100 mg/kg, KAE 50 and 100 mg/kg, LUT 100 mg/kg.
For another assay, the system named is normal mice. On the set-up: method as in PMID 17666819. Conditions: per os; cited from earlier work.
Setting [3] is: substrate 6MP 5 μM, inhibitor 0–20 μM, read-out: IC50(6MP).
The mark [4] stands for this setting: hyperuricaemic mice, LUT 16–100 mg/kg, LUT-7-O-glucoside 50 and 100 mg/kg.

Read-outs that look alike come from different tables or passages of the source.

T1 sequence (P80457 whole entry): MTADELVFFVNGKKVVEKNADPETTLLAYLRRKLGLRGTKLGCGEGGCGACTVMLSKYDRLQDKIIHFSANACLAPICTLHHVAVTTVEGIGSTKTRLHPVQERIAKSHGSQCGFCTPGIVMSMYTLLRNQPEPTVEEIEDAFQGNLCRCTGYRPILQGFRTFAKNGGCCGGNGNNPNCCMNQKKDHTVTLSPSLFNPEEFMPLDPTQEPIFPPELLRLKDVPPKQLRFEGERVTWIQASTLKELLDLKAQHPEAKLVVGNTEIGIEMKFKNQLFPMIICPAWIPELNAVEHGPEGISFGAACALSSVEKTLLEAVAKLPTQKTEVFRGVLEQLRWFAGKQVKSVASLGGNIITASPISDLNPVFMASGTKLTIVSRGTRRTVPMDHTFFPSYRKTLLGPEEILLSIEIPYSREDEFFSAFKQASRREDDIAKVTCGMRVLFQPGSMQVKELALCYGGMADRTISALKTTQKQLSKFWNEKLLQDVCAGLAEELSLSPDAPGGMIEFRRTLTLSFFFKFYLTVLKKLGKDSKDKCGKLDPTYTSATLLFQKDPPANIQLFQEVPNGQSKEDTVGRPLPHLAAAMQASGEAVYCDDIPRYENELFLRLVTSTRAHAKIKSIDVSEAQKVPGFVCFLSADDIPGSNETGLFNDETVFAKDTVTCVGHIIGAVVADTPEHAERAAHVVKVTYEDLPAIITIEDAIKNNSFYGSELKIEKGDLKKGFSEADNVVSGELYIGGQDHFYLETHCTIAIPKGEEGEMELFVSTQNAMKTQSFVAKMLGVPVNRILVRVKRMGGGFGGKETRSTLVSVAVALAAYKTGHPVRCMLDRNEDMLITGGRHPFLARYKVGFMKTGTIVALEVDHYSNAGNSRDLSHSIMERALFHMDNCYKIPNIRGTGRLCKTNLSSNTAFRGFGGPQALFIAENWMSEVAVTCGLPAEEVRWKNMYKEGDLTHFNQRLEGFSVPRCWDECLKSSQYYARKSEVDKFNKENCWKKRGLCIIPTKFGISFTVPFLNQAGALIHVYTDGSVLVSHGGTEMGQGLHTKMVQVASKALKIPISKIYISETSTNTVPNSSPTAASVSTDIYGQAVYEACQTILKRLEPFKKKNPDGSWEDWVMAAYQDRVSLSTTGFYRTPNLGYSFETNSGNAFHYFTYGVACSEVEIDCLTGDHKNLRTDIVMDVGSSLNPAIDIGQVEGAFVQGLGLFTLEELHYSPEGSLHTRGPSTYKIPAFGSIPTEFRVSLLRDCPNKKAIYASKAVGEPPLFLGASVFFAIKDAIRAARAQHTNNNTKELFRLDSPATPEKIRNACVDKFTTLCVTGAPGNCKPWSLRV

On to `O=c1cc(-c2ccc(O)cc2)oc2cc(O)cc(O)c12` [Apigenin, 5,7,4’-trihydroxyflavone], for which, in assay [1], the “IC50 (xanthine)/IC50 (6MP)” value came to 3.00. In addition, the IC50 is 270 nM in assay [1]; 90 nM in assay [2] (setting [3]); < 100 nM in assay [2] (substrate 6MP 5 μM, read-out: IC50 values on 6MP oxidation). For the same compound, in the assay with hyperuricaemic mice (hyperuricaemic mice, API 175–700 mg/kg), the “serum uric acid levels” value is “did not affect”. In the assay with hyperuricaemic mice, the “serum uric acid concentrations” value is on record as “significantly decreased”.

`O=c1cc(-c2ccccc2)oc2cc(O)cc(O)c12` [Chrysin, 5,7-dihydroxyflavone]: in assay [1], the “IC50 (xanthine)/IC50 (6MP)” value worked out at 3.18. In assay [2], this compound came in with an IC50 of 220 nM.

Regarding `O=C(O)[C@H]1O[C@@H](Oc2cc(O)c3c(=O)cc(-c4ccccc4)oc3c2)[C@H](O)[C@@H](O)[C@@H]1O` [Chrysin-7-glucuronide, chrysin-7-glucuronide], the IC50 in assay [1] and in assay [2] (setting [3]) was > 20000 nM each time.

For `O=c1cc(-c2ccccc2)oc2cc(OS(=O)(=O)O)cc(O)c12` [Chrysin-7-sulfate, chrysin-7-sulfate], the half-inhibitory concentration (IC50) is > 20000 nM in assay [1] and 2230 nM in assay [2] (setting [3]).

On to `O=c1c(O)c(-c2ccc(O)c(O)c2)oc2cc(O)ccc12` [Fisetin, 3,7,3′,4′-tetrahydroxyflavone], for which, in assay [1], the “IC50 (xanthine)/IC50 (6MP)” value turned out to be 0.78 and the IC50 was 860 nM. In addition, the 50% inhibitory concentration (IC50) in assay [2] (setting [3]) was found to be 1100 nM.

As for `COc1cc(-c2oc3cc(O)ccc3c(=O)c2O)ccc1O` [Geraldol, 3’-O-methylfisetin], in assay [1], the “IC50 (xanthine)/IC50 (6MP)” value was determined as 0.57 and half-maximal inhibition (IC50) required 680 nM. For the same compound, the IC50 in assay [2] (setting [3]) was 1190 nM.

As for `O=c1c(O)c(-c2ccc(O)cc2)oc2cc(O)cc(O)c12` [Kaempferol, 3,5,7,4′-tetrahydroxyflavone], in the assay with hyperuricaemic mice, the “serum uric acid concentrations” value is on record as “significantly decreased”. Moreover, in the assay on normal mice, the uric acid levels entry is recorded as “decreased”.

Turning to `O=c1cc(-c2ccc(O)c(O)c2)oc2cc(O[C@@H]3O[C@H](CO)[C@@H](O)[C@H](O)[C@H]3O)cc(O)c12` [LUT-7-O-glucoside], in the assay with hyperuricaemic mice (setting [4]), the “serum uric acid levels” value is reported as “did not affect”.

Turning to `O=c1cc(-c2ccc(O)c(O)c2)oc2cc(O)cc(O)c12` [Luteolin, 5,7,3′,4′-tetrahydroxyflavone], the “IC50 (xanthine)/IC50 (6MP)” value in assay [1] is on record as 0.59. The IC50 in assay [1] turned out to be 160 nM; in assay [2] (setting [3]), 270 nM. In addition, the uric acid levels entry in the assay on hyperuricaemic mice (hyperuricaemic mice, i.p. administration, 50 mg/kg) is recorded as “slight but significant decrease”. Further, the “serum uric acid levels” value in the assay on hyperuricaemic mice (setting [4]) was “did not affect”. For the same compound, the “serum uric acid concentrations” value in the assay with hyperuricaemic mice is reported as “significantly decreased”.

For orientation: IC50 means the concentration that inhibits the measured activity by half.

The values above are taken from paper PMC7246923, “Inhibition of Xanthine Oxidase-Catalyzed Xanthine and 6-Mercaptopurine Oxidation by Flavonoid Aglycones and Some of Their Conjugates” (International Journal of Molecular Sciences, 2020).
